Holding throughout (assay): NCI anticancer screen, dose series, 48 h
Assay [1] relates to M19-MEL melanoma.
In assay [2] the test system is SNB-78 CNS.
Assay [3] deals with XF 498 CNS.
The test system of assay [4] is HOP-18 NSCLC.
In assay [5] the test system is BT-549 breast.
The subject of assay [6] is T-47D breast.
Assay [7] has as its system MCF7 breast.
In assay [8] the test system is HS 578T breast.
Assay [9] has as its system NCI/ADR-RES ovarian.
Assay [10] deals with MDA-MB-231 breast.

“And” between values parts separate entries of the source, which are not always exact repeats. Equal values may be shown once.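 Where inhibition never reached the appropriate level, the endpoint shown equals the highest concentration tested. Otherwise, values were interpolated linearly from a five-concentration, 48-hour dose response in 96-well plates. Abbreviation: GI50, concentration required for 50% inhibition of growth. TGI denotes the concentration required for complete inhibition of growth.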 The source made the active and inactive calls. Rule as the data show it: active = GI50 below about 0.43 µM; inactive = the rest.

On to `N#CC1CCCCCCCCCCC(=O)N(CCCl)C1=O` (configuration not stated), for which the TGI in assay [1], in [2] and in assay [3] was greater than 100 µM each time.

Consider `Cn1cc(C(=O)C[n+]2ccccc2)c2ccccc21`, for which the TGI in assay [1] and in [3] was greater than 100 µM each time.

Regarding `CC(=O)OCC1OC(n2c(-c3ccc(C)cc3)cc(-c3ccccc3)c(C#N)c2=O)C(OC(C)=O)C(OC(C)=O)C1OC(C)=O` (configuration not stated), the TGI in assay [1], in assay [2] and in assay [3] was greater than 100 µM throughout.

For the molecule `CC(C)(c1ccccc1)c1ccc(OC#N)cc1`, the TGI in [4], in [1], in [2] and in assay [3] was greater than 100 µM throughout.

`N#Cc1cccc(/C=N/N=C(\N)NO)c1`: the TGI in [4], in assay [1], in assay [2] and in [3] was greater than 100 µM in each case.

For `Cn1cc2ccccc2c1-c1nc(F)nc(OCC(=O)[C@H]2CCC3[C@@H]4CCC5=CC(=O)CC[C@]5(C)C4[C@@H](O)C[C@@]32C)n1` (some centres not stated), the TGI in [4] was found to be 29.2 µM; in assay [1], 14.9 µM; in assay [2] it was 47.3 µM; in assay [3], 21.9 µM.

Regarding `CCN1CCC(O)(c2ccc(Cl)cc2)C(C(=O)c2ccc(Cl)cc2)C1` (configuration not stated), the TGI in [4] is 95.9 µM; in [1], greater than 100 µM; in assay [2] it was greater than 100 µM; in [3], greater than 100 µM.

`NC(N)=NS(=O)(=O)c1ccc(Nc2c3ccccc3nc3c(C(=O)Nc4ccc(S(N)(=O)=O)cc4)cccc23)cc1`: the TGI in [4] was greater than 100 µM; in [1], greater than 100 µM; in assay [2], greater than 100 µM; in assay [3], 69.8 µM.

On to `CCCSS[C@H]1NC(=O)[C@H]1NC(=O)COc1ccccc1`, for which the TGI in [4] was found to be 66.7 µM; in assay [1] it was 33 µM; in assay [2], 60.6 µM; in [3], 33.8 µM.

Take `COC(C)(C)C/C=C/C(C)=C/C=C/C(C)=C\C=C\C(C)=C\C=C\C=C(C)\C=C\C=C(C)\C=C\C=C(C)\C=C\CC(C)(C)OC`: in assay [1], the GI50 is greater than 150 µg/mL and the TGI is greater than 150 µg/mL. Moreover, the result in assay [3] was inactive.

For `O=C(NC12CC3CC(CC(C3)C1)C2)C(=O)c1c[nH]c2ccccc12`, the figures for the TGI in assay [1], in assay [2] and in assay [3] were 36.2 µM, 40.3 µM and 25.7 µM, respectively.

For the molecule `CN(C)CC/[N+]([O-])=C(/c1ccccc1)C12CC3CC(CC(C3)C1)C2`, the TGI in [4] is 35.6 µM; in assay [1], 27.2 µM; in assay [2], 41.8 µM; in [3], 25.9 µM.

In the case of `Cc1cc2c(C)nn(Cc3ccc(Cl)cc3)c2c(C#N)c1C`, the TGI in assay [4], in [1], in assay [2] and in [3] was greater than 100 µM throughout.

Turning to `O=Cc1c(O)c(C(=O)Nc2ccc3[nH]c(=O)[nH]c3c2)cc2ccccc12`, the TGI in [4], in [1] and in assay [2] was greater than 100 µM in each case.

As to `COC(=O)c1c2cccccc-2c(Cc2c3cccccc-3c(C(=O)OC)c2O)c1O`, the TGI in assay [4], in [1], in assay [2] and in assay [3] was greater than 100 µM each time.

In the case of `CC(C)OP(=O)(NC(=S)c1ccccc1)OC(C)C`, the TGI in assay [1], in assay [2] and in assay [3] was greater than 100 µM in each case.

For `CN1C(=O)C2C(C1=O)C1(O)c3ccccc3C2(N)c2ccccc21` (configuration not stated), the TGI in assay [4], in [1] and in assay [2] was greater than 100 µM throughout.

`COc1ccc(OCC(=O)O)c(C(=O)CCC(=O)O)c1`: the TGI in assay [1], in assay [2] and in [3] was greater than 100 µM throughout.

On to `NCCCNCCCCNC(=O)C(O)NC(=O)CCCCCCN=C(N)N` (configuration not stated), for which the GI50 in assay [5] is 1540 µM; in assay [6], 2130 µM; in assay [7], 1750 µM; in [8], 2070 µM; in [9] it was 2190 µM; in assay [10] it was greater than 2570 µM. Also, the TGI was 750 µM and 4950 µM in assay [5]; 744 µM in [4]; greater than 5000 µM in assay [6]; 750 µM and > 5000 µM in assay [7]; 750 µM and 3990 µM in assay [8]; 750 µM in assay [1]. Besides, the TGI was greater than 5000 µM in assay [9], greater than 5000 µM in assay [10], greater than 750 µM in assay [2] and 119 µM in assay [3].

Regarding `Cc1cc(C)cc(NC(N)=S)c1`, the TGI in assay [1], in assay [2] and in assay [3] was greater than 100 µM each time.

Consider `Cc1cccc(NC(=O)c2cccc([N+](=O)[O-])c2O)c1C`, for which the TGI in assay [5] is greater than 100 µM; in [4], greater than 100 µM; in [6], greater than 100 µM; in assay [7], 81.2 µM; in assay [8], greater than 100 µM; in [1], 79.1 µM. The TGI in assay [9] is greater than 100 µM; in assay [10], greater than 100 µM; in assay [2], greater than 100 µM; in assay [3], 61 µM.

Regarding `CCN(CC)c1ccc(N=Nc2ccc(-c3nc4ccc[n+](C)c4o3)cc2)cc1`, the TGI in [4] amounted to 38.3 µM; in [1] it was 16.3 µM; in assay [2], 32.6 µM; in assay [3], 23.5 µM.

Turning to `O=C(O)CCc1nn2c(nc1=O)sc1ccc3ccccc3c12`, the TGI in assay [4], in assay [1], in [2] and in assay [3] was greater than 100 µM in each case.

As for `N#CC1CC2(CCN1C(=O)c1ccccc1)OCCO2` (configuration not stated), the TGI in [4], in [1], in assay [2] and in assay [3] was greater than 100 µM each time.

On to `COc1ccccc1NC(=O)CC(=O)N/N=C/c1ccc(N(CCC#N)S(=O)(=O)c2ccccc2)cc1`, for which the TGI in [4], in [1], in assay [2] and in assay [3] was greater than 100 µM each time.

For `COC(=O)Nc1nc2ccc(Br)cc2[nH]1`, the TGI is greater than 100 µM in assay [4], greater than 100 µM in assay [1], greater than 100 µM in [2] and 86.5 µM in [3].

As to `CCOC(=O)c1[nH]c(COC(C)=O)c2c1CCCCCCCCCC2`, the TGI in [4], in assay [1], in assay [2] and in [3] was greater than 100 µM each time.

In the case of `C=CCC1C(=O)CC2(C)CC(=O)C(CC=C)C12C` (configuration not stated), the TGI in [4], in assay [1], in [2] and in assay [3] was greater than 100 µM throughout.

Take `CC1(C)C2C=CC1C(=O)CC2` (configuration not stated): the TGI in assay [4], in [2] and in assay [3] was greater than 100 µM throughout.

The record behind these values is PubChem BioAssay (NCI).
